# Molecular target: APJ receptor (Homo sapiens (Human), UniProt P35414)
# Assay: [35S]GTPγS binding assay on membranes from CHO cells stably expressing human APJ receptor
# Type: biochemical
# Conditions: membranes of CHO cells stably expressing human APJ receptor, means of several independent experiments, read-out: Activity hAPJ SPA EC50 IP
# Procedure, shortened: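 EC50 values were obtained by non-linear regression of [35S]GTPγS (0.2 nM) binding after 90 min at RT, with nonspecific binding defined by 100 μM GTPγS. Reactions used human APJ–expressing CHO cell membranes on WGA PS beads in HEPES pH 7.5 buffer with 5 mM MgCl2, 200 mM NaCl, 3 μM GDP and 0.1% BSA.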
# Chain of APJ receptor (P35414 whole entry): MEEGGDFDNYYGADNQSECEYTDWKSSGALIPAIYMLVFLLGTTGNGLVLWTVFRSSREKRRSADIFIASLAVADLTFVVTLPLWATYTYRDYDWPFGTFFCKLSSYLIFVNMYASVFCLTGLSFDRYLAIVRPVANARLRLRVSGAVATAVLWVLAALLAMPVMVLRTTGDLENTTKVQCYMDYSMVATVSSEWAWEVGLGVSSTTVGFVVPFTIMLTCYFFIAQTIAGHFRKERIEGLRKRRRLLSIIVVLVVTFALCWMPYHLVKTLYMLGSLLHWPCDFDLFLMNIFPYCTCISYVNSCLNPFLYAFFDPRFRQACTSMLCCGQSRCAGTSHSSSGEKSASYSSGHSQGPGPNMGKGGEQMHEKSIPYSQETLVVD
row,SMILES,EC50 [nM]
1,"COc1cccc(OC)c1-n1c(NS(=O)(=O)[C@@H]2CCC[C@H]2c2ncc(F)cn2)nnc1-c1ccc(C)o1 (single isomer, unassigned) [Example 101.0, (1R,2S)—N-(4-(2,6-Dimethoxyphenyl)-5-(5-methyl-2-furanyl)-4H-1,2,4-triazol-3-yl)-2-(5-fluoro-2-pyrimidinyl)cyclopentanesulfonamide or (1S,2R)—N-(4-(2,6-dimethoxyphenyl)-5-(5-methyl-2-furanyl)-4H-1,2,4-triazol-3-yl)-2-(5-fluoro-2-pyrimidinyl)cyclopentanesulfonamide]",2
2,"COc1cccc(OC)c1-n1c(NS(=O)(=O)[C@H](C)[C@H](O)c2cccc3nccn23)nnc1-c1ccc(C)o1 (racemic) [Example 306.0, (1R,2R)—N-(4-(2,6-Dimethoxyphenyl)-5-(5-methyl-2-furanyl)-4H-1,2,4-triazol-3-yl)-1-hydroxy-1-imidazo[1,2-a]pyridin-5-yl-2-propanesulfonamide and (1S,2S)—N-(4-(2,6-dimethoxyphenyl)-5-(5-methyl-2-furanyl)-4H-1,2,4-triazol-3-yl)-1-hydroxy-1-imidazo[1,2-a]pyridin-5-yl-2-propanesulfonamide]",18
3,"COc1cccc(OC)c1-n1c(NS(=O)(=O)[C@@H]2COCC[C@@H]2O)nnc1-c1ccc(C)o1 (single isomer, unassigned) [Example 404.0]",36
4,"COc1cccc(OC)c1-n1c(NS(=O)(=O)CCc2ccc(C#N)cn2)nnc1-c1ccc(C)o1 [Example 19.0, 2-(5-cyano-2-pyridinyl)-N-(4-(2,6-dimethoxyphenyl)-5-(5-methyl-2-furanyl)-4H-1,2,4-triazol-3-yl)ethanesulfonamide]",0.29
5,"CCOC(=O)[C@@H]1C[C@@H](S(=O)(=O)Nc2nnc(-c3ccco3)n2-c2c(OC)cccc2OC)CN(c2ncc(F)cn2)C1 [Example 158.0, Ethyl (3R,5R)-5-((4-(2,6-dimethoxyphenyl)-5-(2-furanyl)-4H-1,2,4-triazol-3-yl)sulfamoyl)-1-(5-fluoro-2-pyrimidinyl)-3-piperidinecarboxylate or ethyl (3S,5S)-5-((4-(2,6-dimethoxyphenyl)-5-(2-furanyl)-4H-1,2,4-triazol-3-yl)sulfamoyl)-1-(5-fluoro-2-pyrimidinyl)-3-piperidinecarboxylate]",0.4
6,"CCOC(=O)[C@@H]1C[C@H](S(=O)(=O)Nc2nnc(-c3ccco3)n2-c2c(OC)cccc2OC)CN(c2ncc(F)cn2)C1 (single isomer, unassigned) [Example 156.0, Ethyl (3R,5S)-5-((4-(2,6-Dimethoxyphenyl)-5-(2-furanyl)-4H-1,2,4-triazol-3-yl)sulfamoyl)-1-(5-fluoro-2-pyrimidinyl)-3-piperidinecarboxylate or Ethyl (3S,5R)-5-((4-(2,6-dimethoxyphenyl-5-(2-furanyl)-4H-1,2,4-triazol-3-yl)sulfamoyl)-1-(5-fluoro-2-pyrimidinyl)-3-piperidinecarboxylate]",0.36
7,"COc1cccc(OC)c1-n1c(NS(=O)(=O)[C@@H](C)[C@H](OC)c2ncc(F)cn2)nnc1-c1ccc(C)o1 (single isomer, unassigned) [Example 116.0, (1R,2S)-N-(4-(2,6-dimethoxyphenyl)-5-(5-methylfuran-2-yl)-4H-1,2,4-triazol-3-yl)-1-(5-fluoropyrimidin-2-yl)-1-methoxypropane-2-sulfonamide or (1S,2R)-N-(4-(2,6-dimethoxyphenyl)-5-(5-methylfuran-2-yl)-4H-1,2,4-triazol-3-yl)-1-(5-fluoropyrimidin-2-yl)-1-methoxypropane-2-sulfonamide]",0.056
8,"COc1cccc(OC)c1-n1c(NS(=O)(=O)[C@H]2C[C@@H](O)CN(c3cncc(C#N)c3)C2)nnc1-c1ccc(C)o1 [Example 334.0, (3S,5R)-1-(5-Cyanopyridin-3-yl)-N-(4-(2,6-dimethoxyphenyl)-5-(5-methylfuran-2-yl)-4H-1,2,4-triazol-3-yl)-5-hydroxypiperidine-3-sulfonamide and (3S,5R)-1-(5-cyanopyridin-3-yl)-N-(4-(2,6-dimethoxyphenyl)-5-(5-methylfuran-2-yl)-4H-1,2,4-triazol-3-yl)-5-hydroxypiperidine-3-sulfonamide]",0.47
9,"COc1cccc(OC)c1-n1c(NS(=O)(=O)C[C@@H](C)c2ncc(F)cn2)nnc1-c1ccc(C)o1 (racemic) [Example 127.0, (S)—N-(4-(2,6-Dimethoxyphenyl)-5-(5-methylfuran-2-yl)-4H-1,2,4-triazol-3-yl)-2-(5-fluoropyrimidin-2-yl)propane-1-sulfonamide and (R)—N-(4-(2,6-dimethoxyphenyl)-5-(5-methylfuran-2-yl)-4H-1,2,4-triazol-3-yl)-2-(5-fluoropyrimidin-2-yl)propane-1-sulfonamide]",0.65
10,"C[C@@H](Cc1ncc(F)cn1)S(=O)(=O)Nc1nnc(-c2ccco2)n1C1CCCCC1.C[C@H](Cc1ncc(F)cn1)S(=O)(=O)Nc1nnc(-c2ccco2)n1C1CCCCC1 (mixture of isomers) [Example 313.0, (2R)—N-(4-Cyclohexyl-5-(2-furanyl)-4H-1,2,4-triazol-3-yl)-1-(5-fluoro-2-pyrimidinyl)-2-propanesulfonamide and (2S)—N-(4-cyclohexyl-5-(2-furanyl)-4H-1,2,4-triazol-3-yl)-1-(5-fluoro-2-pyrimidinyl)-2-propanesulfonamide]",230
11,"COc1ncnc(OC)c1-n1c(NS(=O)(=O)[C@@H](C)[C@H](C)c2ncc(F)cn2)nnc1-c1ccc(Br)o1 [Example 394.0, (2S,3R)-N-(5-(5-bromo-2-furanyl)-4-(4,6-dimethoxy-5-pyrimidinyl)-4H-1,2,4-triazol-3-yl)-3-(5-fluoro-2-pyrimidinyl)-2-butanesulfonamide]",0.31
12,"COc1cccc(OC)c1-n1c(NS(=O)(=O)[C@@H]2COCC[C@@H]2O)nnc1-c1ccc(C)o1 (single isomer, unassigned) [Example 403.0]",57
13,"COc1ncnc(OC)c1-n1c(NS(=O)(=O)[C@@H](C)[C@@H](OC(C)C)c2ncc(C)cn2)nnc1-c1ccc(C)o1 [Example 401.0, (1S,2S)-N-(4-(4,6-dimethoxypyrimidin-5-yl)-5-(5-methylfuran-2-yl)-4H-1,2,4-triazol-3-yl)-1-isopropoxy-1-(5-methylpyrimidin-2-yl)propane-2-sulfonamide]",0.53
14,"COc1cccc(OC)c1-n1c(NS(=O)(=O)[C@@H]2C[C@H]2c2ccc(Cl)cc2)nnc1-c1ccco1 (single isomer, unassigned) [Example 192.0, (1R,2S)-2-(4-Chlorophenyl)-N-(4-(2,6-dimethoxyphenyl)-5-(2-furanyl)-4H-1,2,4-triazol-3-yl)cyclopropanesulfonamide or (1S,2R)-2-(4-chlorophenyl)-N-(4-(2,6-dimethoxyphenyl)-5-(2-furanyl)-4H-1,2,4-triazol-3-yl)cyclopropanesulfonamide]",2.8
15,COc1cccc(OC)c1-n1c(NS(=O)(=O)[C@@H](C)[C@H](O)c2ccc(C#N)cc2F)nnc1-c1ccc(C)o1 [Example 75.0],0.55
16,"COc1cccc(OC)c1-n1c(NS(=O)(=O)CCc2ncc(Cl)cc2CN2CCOCC2)nnc1-c1ccco1 [Example 219.0, 2-(5-Chloro-3-(4-morpholinylmethyl)-2-pyridinyl)-N-(4-(2,6-dimethoxyphenyl)-5-(2-furanyl)-4H-1,2,4-triazol-3-yl)ethanesulfonamide]",0.26
17,"COc1cccc(OC)c1-n1c(NS(=O)(=O)CCN2C(=O)[C@H](C)C[C@H]2C)nnc1-c1ccco1 (single isomer, unassigned) [Example 175.0]",1.9
18,"COc1cccc(OC)c1-n1c(NS(=O)(=O)CCc2ncc(Cl)cc2CCN2CC[C@H](O)C2)nnc1-c1ccco1 [Example 238.0, 2-(5-Chloro-3-(2-((3S)-3-hydroxy-1-pyrrolidinyl)ethyl)-2-pyridinyl)-N-(4-(2,6-dimethoxyphenyl)-5-(2-furanyl)-4H-1,2,4-triazol-3-yl)ethanesulfonamide]",0.59
19,"COc1cccc(OC)c1-n1c(NS(=O)(=O)[C@@H]2CCC[C@H]2c2ncc(F)cn2)nnc1-c1ccco1 (single isomer, unassigned) [Example 104.0, (1R,2S)—N-(4-(2,6-Dimethoxyphenyl)-5-(2-furanyl)-4H-1,2,4-triazol-3-yl)-2-(5-fluoro-2-pyrimidinyl)cyclopentanesulfonamide or (1S,2R)—N-(4-(2,6-dimethoxyphenyl)-5-(2-furanyl)-4H-1,2,4-triazol-3-yl)-2-(5-fluoro-2-pyrimidinyl)cyclopentanesulfonamide]",22
20,COc1cccc(OC)c1-n1c(NS(=O)(=O)[C@H](C)[C@H](O)c2oc(C)nc2C)nnc1-c1ccc(C)o1 (racemic) [Example 82.0],18
21,"COc1cccc(OC)c1-n1c(NS(=O)(=O)[C@H]2C[C@@H](C(=O)N3CCC3)CN(c3ncc(F)cn3)C2)nnc1-c1ccco1 (single isomer, unassigned) [Example 162.0, (3R,5S)-5-(1-Azetidinylcarbonyl)-N-(4-(2,6-dimethoxyphenyl)-5-(2-furanyl)-4H-1,2,4-triazol-3-yl)-1-(5-fluoro-2-pyrimidinyl)-3-piperidinesulfonamide or (3S,5R)-5-(1-azetidinylcarbonyl)-N-(4-(2,6-dimethoxyphenyl)-5-(2-furanyl)-4H-1,2,4-triazol-3-yl)-1-(5-fluoro-2-pyrimidinyl)-3-piperidinesulfonamide]",0.68
22,"COc1cnc(N2C[C@H](O)C[C@H](S(=O)(=O)Nc3nnc(-c4ccc(C)o4)n3-c3c(OC)cccc3OC)C2)nc1 (racemic) [Example 335.0, (3S,5R)—N-(4-(2,6-Dimethoxyphenyl)-5-(5-methylfuran-2-yl)-4H-1,2,4-triazol-3-yl)-5-hydroxy-1-(5-methoxypyrimidin-2-yl)piperidine-3-sulfonamide and (3R,5S)—N-(4-(2,6-dimethoxyphenyl)-5-(5-methylfuran-2-yl)-4H-1,2,4-triazol-3-yl)-5-hydroxy-1-(5-methoxypyrimidin-2-yl)piperidine-3-sulfonamide]",0.52
